The text below walks through data of US9708325B2, “Sulfonimidoylpurinone compounds and derivatives for the treatment and prophylaxis of virus infection” (Hoffmann-La Roche Inc., priority 2015, dated 2017).

Converted amounts (≈) assume the structure as drawn. Read-outs that look alike come from different tables or passages of the source. Where only a bound is given, the exact number is not on record here.

The nature of one series: LYSA solubility. The series is classed as physicochemical. Conditions: for solubility thermodynamic: 0.05 M phosphate buffer, pH 6.5, aqueous buffer, thermodynamic from solid. As for the experimental part:
LYSA solubility assay is used to determine the aqueous solubility of a compound. Samples were prepared in duplicate from 10 mM DMSO stock solution. […] After one night, the solutions were filtered using a microtiter filter plate. Then the filtrate and its 1/10 dilution were analyzed by HPLC-UV.

Series [1] in a line: Metabolic stability in human liver microsomes. Conditions: 1 μM test compound, 0.5 mg/mL microsomal protein; 6.15 mL/min/kg is the limitation of assay sensitivity. As for the experimental part:
The human microsomal stability assay is used for early assessment of metabolic stability of a test compound in human liver microsomes.
Human liver microsomes (Cat. NO.: 452117, Corning, USA; Cat. NO.: H2610, Xenotech, USA) were preincubated with test compound for 10 minutes at 37° C. in 100 mM potassium phosphate buffer, pH 7.4. The reactions were initiated by adding NADPH regenerating system. The final incubation mixtures contained 1 μM test compound, 0.5 mg/mL liver microsomal protein, 1 mM MgCL2, 1 mM NADP, 1 unit/mL isocitric dehydrogenase and 6 mM isocitric acid in 100 mM potassium phosphate buffer, pH 7.4. After incubation times of 0, 3, 6, 9, 15 and 30 minutes at 37° C., 300 μL of cold ACN (including internal standard) was added to 100 μL incubation mixture to terminate the reaction. Following precipitation and centrifugation, the amount of compound remaining in the samples were determined by LC-MS/MS. Controls of no NADPH regenerating system at zero and 30 minutes were also prepared and analyzed.
On the technique in general: Liver microsomes are vesicles of endoplasmic reticulum, rich in cytochrome P450 enzymes.

Series [2] concerns Salmonella typhimurium tester strains (TA1535, TA97, TA98, TA100, and TA102). Description: Ames microsuspension assay. The series is classed as cell-based. Conditions: five strains, absence and presence of S9. As for the experimental part:
The Ames microsuspension assay examines if a compound causes DNA mutations. The method was based on a modified pre-incubation version described by Kado et al (see references: B. N. Ames, J. McCann, E. Yamasaki, Mutation Res. 1975, 31, 347-364 N.Y. Kado, D. Langley, and E. Eisenstadt, Mutation Res. 1983, 121, 25-32). Five Salmonella typhimurium tester strains (TA1535, TA97, TA98, TA100, and TA102) were treated with the test compound in absence and in presence of an exogenous metabolic activation system (S9). The bacteria were pre-incubated for 1 h, the pre-incubation volume is 210 μL (100 μL of overnight culture, 100 μL of S9 mix (10% S9) or 100 μL phosphate buffer, and 10 μL test compound solution). The overnight cultures were resuspended for the test in cold phosphate buffer. The S9 mix contains potassium chloride, magnesium chloride, sodium phosphate buffered saline, NADP^+ and glucose-6-phosphate. The test tubes are incubated and shaken for 60 minutes at 37° C. 2.2 mL soft agar supplemented with L-histidine and biotin was added afterwards and the content of the tubes were mixed and poured on Vogel-Bonner minimal agar plates.
Three replicate plates for the test compound and negative control or two replicate plates for the positive controls were incubated at 37° C., upside down, for 2 days. Colonies were counted electronically using an automatic image analysis system after having inspected the background lawn for signs of toxicity.
S9 is an in vitro metabolic system which is obtained from liver homogenates by centrifuging them at 9000 g for 20 minutes. It contains CYP450 isoforms, phase-II metabolic enzymes, etc. In the Ames microsuspension assay test, S9 is used to assess mutagenicity of compounds, some of which require metabolic activation to become mutagenic.
Criteria of the Ames microsuspension assay: a positive result is defined as a reproducible, dose-related increase in the number of revertant colonies in at least one of the strains. For TA1535 and TA98, the positive threshold is a 2-fold increase over control. For TA97, TA100 and TA102, the threshold is a 1.5-fold increase.

In the next series the target is human TLR7 (Homo sapiens (Human), UniProt Q9NYK1). Description: HEK-Blue-hTLR7 cells assay (SEAP reporter). The series is classed as cell-based. Conditions: 20 hrs, read-out: HEK-Blue-hTLR7 (EC50 (μM)). As for the experimental part:
A stable HEK-Blue-hTLR7 cell line was purchased from InvivoGen (Cat.#: hkb-htlr7, San Diego, Calif., USA). These cells were designed for studying the stimulation of human TLR7 by monitoring the activation of NF-κB. […] Therefore the reporter expression was regulated by the NF-κB promoter upon stimulation of human TLR7 for 20 hrs. The cell culture supernatant SEAP reporter activity was determined using QUANTI-Blue™ kit (Cat.#: rep-qb1, Invivogen, San Diego, Ca, USA) at a wavelength of 640 nm, a detection medium that turns purple or blue in the presence of alkaline phosphatase.
(§1) HEK-Blue-hTLR7 cells were incubated at a density of 250,000˜450,000 cells/mL in a volume of 180 μL in a 96-well plate in Dulbecco's Modified Eagle's medium (DMEM) containing 4.5 g/L glucose, 50 U/mL penicillin, […], […], 2 mM L-glutamine, 10% (V/V) heat-inactivated fetal bovine serum for 24 hrs. Then the HEK-Blue-hTLR-7 cells were incubated with addition of 20 μL test compound in a serial dilution in the presence of final DMSO at 1% and perform incubation under 37° C. in a CO2 incubator for 20 hrs. Then 20 μL of the supernatant from each well was incubated with 180 μL Quanti-blue substrate solution at 37° C. for 2 hrs and the absorbance was read at 620˜655 nm using a spectrophotometer. The signalling pathway that TLR7 activation leads to downstream NF-κB activation has been widely accepted, and therefore similar reporter assay was also widely used for evaluating TLR7 agonist (Tsuneyasu Kaisho and Takashi Tanaka, Trends in Immunology, Volume 29, Issue 7, July 2008, […]; Hiroaki Hemmi et al, Nature Immunology 3, 196-200 (2002)).

A further series concerns the target human TLR8 (Homo sapiens (Human), UniProt Q9NR97). Description: HEK-Blue-hTLR8 cells assay and selectivity index. The series is classed as cell-based. Conditions: for Selective index: EC50(TLR8) value/EC50(TLR7) value. As for the experimental part: A stable HEK-Blue-hTLR8 cell line was purchased from InvivoGen (Cat.#: HEK-Blue-htlr8, San Diego, Calif., USA). These cells were designed for studying the stimulation of human TLR8 by monitoring the activation of NF-κB. […] Therefore the reporter expression was regulated by the NF-κB promoter upon stimulation of human TLR8 for 20 hrs. The cell culture supernatant SEAP reporter activity was determined using QUANTI-Blue™ kit (Cat.#: rep-qb1, Invivogen, San Diego, Ca, USA) at a wavelength of 640 nm, a detection medium that turns purple or blue in the presence of alkaline phosphatase.
as §1, with “HEK-Blue-hTLR8 cells” for “HEK-Blue-hTLR7 cells”, “the HEK-Blue-hTLR8” for “the HEK-Blue-hTLR-7”, “2 hours” for “2 hrs”, “that TLR8” for “that TLR7”, “evaluating TLR8” for “evaluating TLR7”
The ratio of TLR8 agonism activity compared to TLR7 agonism activity was defined as the selectivity index (EC50 (TLR8) value/EC50(TLR7) value) and calculated accordingly.

Series [3] is described as follows: Single dose PK after 1 mg/kg intravenous dosing to rat. In kind it is in vivo, Male Wister-Han Rats. Conditions: IV 1 mpk; for concentration at 4 h: read-out: Mean plasma concentration. As for the experimental part:
The single dose PK in Male Wister-Han Rats was performed to assess pharmacokinetic properties of tested compounds. Two groups of animals were dosed via bolus intravenous (IV) of the respective compound. Blood samples (approximately 20 μL) were collected via Jugular vein or an alternate site at 5 min, 15 min, 30 min, 1 hr, 2 hr, 4 hr, 7 hr and 24 hr post-dose for IV group. Blood samples were placed into tubes containing EDTA-K2 anticoagulant and centrifuged at 5000 rpm for 6 min at 4° C. to separate plasma from the samples. Following centrifugation, the resulting plasma was transferred to clean tubes for bioanalysis on LC/MS/MS. The pharmacokinetic parameters were calculated using non-compartmental module of WinNonlin® Professional 6.2. […] Therefore, compounds of present invention potentially could lead to less dose frequency and lower dose in clinical application.

[4] abbreviates: HEK-Blue-hTLR8 cells, SEAP reporter, 20 hrs, read-out: HEK Blue hTLR-8 EC50.

human TLR7, sequence (Q9NYK1 27-1049): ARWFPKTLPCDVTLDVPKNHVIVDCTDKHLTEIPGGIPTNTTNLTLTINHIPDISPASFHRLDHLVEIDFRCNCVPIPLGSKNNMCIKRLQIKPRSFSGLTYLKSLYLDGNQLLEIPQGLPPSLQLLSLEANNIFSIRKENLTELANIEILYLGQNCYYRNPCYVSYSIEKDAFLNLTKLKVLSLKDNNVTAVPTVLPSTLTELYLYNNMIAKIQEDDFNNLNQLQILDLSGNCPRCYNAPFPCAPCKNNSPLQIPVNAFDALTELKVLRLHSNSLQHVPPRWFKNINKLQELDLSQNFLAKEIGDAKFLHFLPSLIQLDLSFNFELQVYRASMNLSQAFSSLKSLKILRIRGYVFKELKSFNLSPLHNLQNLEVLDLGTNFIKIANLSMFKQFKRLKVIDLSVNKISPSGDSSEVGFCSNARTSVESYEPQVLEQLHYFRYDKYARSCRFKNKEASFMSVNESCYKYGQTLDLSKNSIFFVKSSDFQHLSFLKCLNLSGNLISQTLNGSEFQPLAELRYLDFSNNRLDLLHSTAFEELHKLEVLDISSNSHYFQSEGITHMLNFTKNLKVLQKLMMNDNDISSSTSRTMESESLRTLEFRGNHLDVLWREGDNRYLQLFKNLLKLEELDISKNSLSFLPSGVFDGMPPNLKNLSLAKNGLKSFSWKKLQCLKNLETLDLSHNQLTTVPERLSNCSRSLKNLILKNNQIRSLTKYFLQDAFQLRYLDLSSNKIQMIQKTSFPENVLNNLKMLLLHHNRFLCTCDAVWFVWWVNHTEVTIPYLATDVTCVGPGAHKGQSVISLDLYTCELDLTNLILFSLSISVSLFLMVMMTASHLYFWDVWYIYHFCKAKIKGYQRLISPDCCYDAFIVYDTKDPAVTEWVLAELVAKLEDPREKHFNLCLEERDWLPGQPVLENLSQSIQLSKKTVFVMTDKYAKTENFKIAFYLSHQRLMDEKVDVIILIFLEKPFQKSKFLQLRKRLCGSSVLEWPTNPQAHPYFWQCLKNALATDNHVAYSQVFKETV
human TLR8, sequence (Q9NR97 27-1041): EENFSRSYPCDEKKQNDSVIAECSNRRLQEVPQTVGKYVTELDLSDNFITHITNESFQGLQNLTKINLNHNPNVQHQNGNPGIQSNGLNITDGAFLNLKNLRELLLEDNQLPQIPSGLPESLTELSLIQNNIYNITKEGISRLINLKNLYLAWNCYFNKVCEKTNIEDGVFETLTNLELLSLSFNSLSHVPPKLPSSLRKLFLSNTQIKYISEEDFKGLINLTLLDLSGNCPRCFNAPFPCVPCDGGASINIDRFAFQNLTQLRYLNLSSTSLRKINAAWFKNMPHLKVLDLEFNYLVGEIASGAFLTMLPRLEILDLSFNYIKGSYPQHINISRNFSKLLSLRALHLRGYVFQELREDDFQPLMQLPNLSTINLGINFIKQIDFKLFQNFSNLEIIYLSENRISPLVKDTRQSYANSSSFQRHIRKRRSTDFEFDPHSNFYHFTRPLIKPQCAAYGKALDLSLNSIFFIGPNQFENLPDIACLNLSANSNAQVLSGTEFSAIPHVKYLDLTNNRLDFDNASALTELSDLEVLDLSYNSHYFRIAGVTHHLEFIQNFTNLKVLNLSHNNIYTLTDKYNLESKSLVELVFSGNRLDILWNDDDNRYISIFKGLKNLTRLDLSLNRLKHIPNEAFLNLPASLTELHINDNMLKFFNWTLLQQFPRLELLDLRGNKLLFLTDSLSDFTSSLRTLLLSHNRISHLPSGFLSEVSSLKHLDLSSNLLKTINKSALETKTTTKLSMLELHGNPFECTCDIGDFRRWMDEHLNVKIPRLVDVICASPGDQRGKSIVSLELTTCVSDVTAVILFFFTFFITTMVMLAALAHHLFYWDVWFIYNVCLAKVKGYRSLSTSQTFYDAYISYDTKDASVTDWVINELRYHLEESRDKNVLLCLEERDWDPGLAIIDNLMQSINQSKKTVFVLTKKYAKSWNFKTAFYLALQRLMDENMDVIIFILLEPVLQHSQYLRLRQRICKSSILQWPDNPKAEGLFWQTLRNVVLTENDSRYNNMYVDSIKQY

The thermodynamic solubility is the concentration in solution at equilibrium with solid. With `CS(=N)(=O)c1nc(N)c2[nH]c(=O)n(Cc3ccccc3)c2n1` (single isomer, unassigned) [Example 1-B, 6-Amino-9-benzyl-2-(methylsulfonimidoyl)-7H-purin-8-one], in the series “LYSA solubility”, the thermodynamic solubility was 98 µg/mL (≈ 308 µM). Besides, the “Human Liver Microsome Clearance” value in series [1] is reported as below 6.15 mL/min/kg. The Ames result in series [2] is “negative”.

The EC50 is the concentration needed to bring the measured effect to its halfway point. Regarding `CS(=N)(=O)c1nc(N)c2[nH]c(=O)n(Cc3ccc(Cl)cc3)c2n1` (stereo not shown) [Example 13, 6-Amino-9-[(4-chlorophenyl)methyl]-2-(methylsulfonimidoyl)-7H-purin-8-one], on human TLR7, the EC50 stood at 0.043 µM. Further, at human TLR8, the concentration for a half-maximal effect (EC50) was determined as 300 µM and the Selective index is reported as 6977. In the series “LYSA solubility”, this molecule registered a solubility (thermodynamic) of 10 µg/mL (≈ 28.3 µM).

In the case of `CS(=N)(=O)c1nc(N)c2[nH]c(=O)n(Cc3cccnc3)c2n1` (stereo not shown) [Example 16, 6-Amino-2-(methylsulfonimidoyl)-9-(3-pyridylmethyl)-7H-purin-8-one], the results for the EC50 at human TLR7 and at human TLR8 were 0.22 µM and above 1000 µM, respectively. The molecule also gave a Selective index at human TLR8 above 4546.

On to `CS(=N)(=O)c1nc(N)c2[nH]c(=O)n(Cc3ccncc3)c2n1` (stereo not shown) [Example 20, 6-Amino-2-(methylsulfonimidoyl)-9-(4-pyridylmethyl)-7H-purin-8-one], for which the EC50 on human TLR7 turned out to be 0.26 µM. At human TLR8, the EC50 is above 1000 µM and the Selective index is on record as above 3846.

Consider `CCCS(=N)(=O)c1nc(N)c2[nH]c(=O)n(Cc3ccc(C(=O)NCCOC)cc3)c2n1` (stereo not shown) [Example 40, 4-[[6-Amino-8-oxo-2-(propylsulfonimidoyl)-7H-purin-9-yl]methyl]-N-(2-methoxyethyl)benzamide], for which the half-maximal effective concentration (EC50) at human TLR7 was found to be 0.15 µM. The thermodynamic solubility in the series “LYSA solubility” came to 168 µg/mL (≈ 375 µM). For the same molecule, the “Human Liver Microsome Clearance” value in series [1] was below 6.15 mL/min/kg.

Regarding `CCCS(=N)(=O)c1nc(N)c2[nH]c(=O)n(Cc3cncnc3)c2n1` (stereo not shown) [Example 43, 6-Amino-2-(propylsulfonimidoyl)-9-(pyrimidin-5-ylmethyl)-7H-purin-8-one], the EC50 on human TLR7 stood at 0.24 µM. Also, in “LYSA solubility”, the thermodynamic solubility is above 465 µg/mL. The “Human Liver Microsome Clearance” value in series [1] is below 6.15 mL/min/kg.

Take `CCCS(=N)(=O)c1nc(N)c2[nH]c(=O)n(Cc3cnc(C)nc3)c2n1` (stereo not shown) [Example 44, 6-Amino-9-[(2-methylpyrimidin-5-yl)methyl]-2-(propylsulfonimidoyl)-7H-purin-8-one]: the concentration giving a half-maximal response (EC50) on human TLR7 is 0.136 µM. This molecule registered a solubility (thermodynamic) in the series “LYSA solubility” of 357 µg/mL (≈ 985 µM). Moreover, the “Human Liver Microsome Clearance” value in series [1] is recorded as below 6.15 mL/min/kg.

As for `CCS(=N)(=O)c1nc(N)c2[nH]c(=O)n(Cc3ccc(Cl)cc3)c2n1` (stereo not shown) [Example 70, 6-Amino-9-[(4-chlorophenyl)methyl]-2-(ethylsulfonimidoyl)-7H-purin-8-one], the EC50 on human TLR7 turned out to be 0.057 µM. On human TLR8, this molecule came in with an EC50 of 90 µM and a Selective index of 1579. This molecule showed a thermodynamic solubility in “LYSA solubility” of 7 µg/mL (≈ 19.1 µM).

`CNC(=O)c1nc(N)c2[nH]c(=O)n(Cc3ccccc3)c2n1` [Example P-5, reference compound]: the EC50 at human TLR7 is 3.14 µM; on human TLR8 (setting [4]) it was above 1000 µM.

As for `CS(=O)(=O)c1nc(N)c2[nH]c(=O)n(Cc3ccccc3)c2n1` [Example S-1, reference compound], the results for the EC50 on human TLR7 and on human TLR8 (setting [4]) were 0.37 µM and above 1000 µM, respectively. The same molecule came in with a Selective index on human TLR8 above 2703. Moreover, the “LYSA” value in the series “LYSA solubility” (0.05 M phosphate buffer (pH 6.5)) amounted to 0.5 µg/mL. The “AUC0-inf” value in series [3] was 0.201 µM·h. In series [3], the “CL” value was found to be 261 mL/min/kg. Also, the “CO” value in series [3] was 534 nM. The concentration at 4 h is recorded as 534 nM in series [3] (0.083 h); 236 nM in series [3] (0.25 h); 125 nM in series [3] (0.5 h); 38 nM in series [3] (1 h); 9 nM in series [3] (2 h).
